This is an account of results in patent US10239838B2, “Heteroaryl orexin receptor antagonists” (Merck Sharp & Dohme Corp., priority 2014, dated 2019).

A value given as a limit tells only on which side of the number the result lay.

The target of assay [1] is hOX1R (Homo sapiens, UniProt O43613). The assay can be described thus: FLIPR Ca2+ Flux Assay, orexin-1 receptor. Type of assay: cell-based. As to conditions: CHO cells expressing orexin-1 receptor; agonist 70 pM Ala-6,12 orexin-A.
Assay [2] deals with human orexin-2 receptor (Homo sapiens (Human), UniProt O43614). The assay can be described thus: FLIPR Ca2+ Flux Assay, orexin-2 receptor. It counts as cell-based. As to conditions: CHO cells expressing the human orexin-2 receptor; agonist 70 pM Ala-6,12 orexin-A; read-out: hOX2R FLIPR IC50. The procedure: In a typical experiment the OX1 and OX2 receptor antagonistic activity of the compounds of the present invention was determined in accordance with the following experimental method. For intracellular calcium measurements, Chinese hamster ovary (CHO) cells expressing the rat orexin-1 receptor or the human orexin-2 receptor, are grown in Iscove's modified DMEM containing 2 mM L-glutamine, […], 1% hypoxanthine-thymidine supplement, 100 U/ml penicillin, 100 μg/ml streptomycin and 10% heat-inactivated fetal calf serum (FCS). The cells are seeded at 20,000 cells/well into Becton-Dickinson black 384-well clear bottom sterile plates coated with poly-D-lysine. All reagents were from GIBCO-Invitrogen Corp. The seeded plates are incubated overnight at 37° C. and 5% CO2. Ala-6,12 human orexin-A as the agonist is prepared as a 1 mM stock solution in 1% bovine serum albumin (BSA) and diluted in assay buffer (HBSS containing 20 mM HEPES, 0.1% BSA and 2.5 mM probenecid, pH7.4) for use in the assay at a final concentration of 70 pM. Test compounds are prepared as 10 mM stock solution in DMSO, then diluted in 384-well plates, first in DMSO, then assay buffer. On the day of the assay, cells are washed 3 times with 100 μl assay buffer and then incubated for 60 min (37° C., 5% CO2) in 60 μl assay buffer containing 1 μM Fluo-4 AM ester, 0.02% pluronic acid, and 1% BSA. The dye loading solution is then aspirated and cells are washed 3 times with 100 μl assay buffer. 30 μl of that same buffer is left in each well. Within the Fluorescent Imaging Plate Reader (FLIPR, Molecular Devices), test compounds are added to the plate in a volume of 25 μl, incubated for 5 min and finally 25 μl of agonist is added. Fluorescence is measured for each well at 1 second intervals for 5 minutes and the height of each fluorescence peak is compared to the height of the fluorescence peak induced by 70 pM Ala-6,12 orexin-A with buffer in place of antagonist. […] Alternatively, compound potency can be assessed by a radioligand binding assay (described in Bergman et. al. Bioorg. Med. Chem. Lett. 2008, 18, 1425-1430) in which the inhibition constant (Ki) is determined in membranes prepared from CHO cells expressing either the OX1 or OX2 receptor. The intrinsic orexin receptor antagonist activity of a compound which may be used in the present invention may be determined by these assays.
Chain of human orexin-2 receptor (O43614 whole entry): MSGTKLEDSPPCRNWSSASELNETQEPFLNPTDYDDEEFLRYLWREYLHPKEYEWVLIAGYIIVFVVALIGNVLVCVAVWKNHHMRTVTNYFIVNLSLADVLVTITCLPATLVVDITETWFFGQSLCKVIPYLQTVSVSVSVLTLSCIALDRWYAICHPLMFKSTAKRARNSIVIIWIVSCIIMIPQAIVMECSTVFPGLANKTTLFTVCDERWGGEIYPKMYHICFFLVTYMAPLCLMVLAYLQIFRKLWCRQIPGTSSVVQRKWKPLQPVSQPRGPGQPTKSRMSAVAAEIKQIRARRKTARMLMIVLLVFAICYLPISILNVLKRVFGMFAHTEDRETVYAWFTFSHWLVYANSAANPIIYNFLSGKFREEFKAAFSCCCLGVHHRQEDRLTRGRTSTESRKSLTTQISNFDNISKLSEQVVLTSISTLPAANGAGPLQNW

With `CCN(CCc1ccnc(C(C)(C)O)c1)C(=O)c1ccccc1-n1nccn1` [Example 37, N-Ethyl-N-{2-[2-(1-hydroxy-1-methylethyl)pyridin-4-yl]ethyl}-2-(2H-1,2,3-triazol-2-yl)benzamide], the IC50 is more than 10 µM in assay [1] and 0.124 µM in assay [2].

`CCN(CCc1nccc(C(C)O)n1)C(=O)c1ccccc1-n1nccn1` (stereo not drawn) [Example 43, N-Ethyl-N-(2-(4-(1-hydroxyethyl)pyrimidin-2-yl)ethyl)-2-(2H-1,2,3-triazol-2-yl)benzamide]: the IC50 was more than 10 µM in assay [1] and 0.165 µM in assay [2].

Turning to `CCN(CCc1ccc(C(C)(C)O)cn1)C(=O)c1ccccc1OC(F)(F)F` [Example 50, N-ethyl-N-{2-[5-(1-hydroxy-1-methylethyl)pyridin-2-yl]ethyl}-2-(trifluoromethoxy)benzamide], the half-inhibitory concentration (IC50) in assay [1] was more than 10 µM; in assay [2], 0.239 µM.

Take `CCN(CCc1cncc(C(C)(C)O)c1)C(=O)c1ccccc1-n1nccn1` [Example 38, N-Ethyl-N-{2-[5-(1-hydroxy-1-methylethyl)pyridin-3-yl]ethyl}-2-(2H-1,2,3-triazol-2-yl)benzamide]: the results for the IC50 in assay [1] and in assay [2] were more than 10 µM and 0.152 µM, respectively.

As to `CCN(CCc1ccc(C(C)(C)O)cn1)C(=O)c1cccnc1-n1cccn1` [Example 49, N-Ethyl-N-{2-[5-(1-hydroxy-1-methylethyl)pyridin-2-yl]ethyl}-2-(1H-pyrazol-1-yl)pyridine-3-carboxamide], the IC50 in assay [1] was more than 10 µM; in assay [2] it was 0.252 µM.

Turning to `CCN(CCc1ccc(C(C)(C)O)cn1)C(=O)c1ccccc1-n1ncnn1` [Example 55, N-ethyl-N-{2-[5-(1-hydroxy-1-methylethyl)pyridin-2-yl]ethyl}-2-(2H-tetrazol-2-yl)benzamide], the IC50 in assay [1] was more than 10 µM; in assay [2] it was 0.388 µM.

Turning to `CCN(CCc1cccc(C(C)(C)O)n1)C(=O)c1ccccc1OC(F)(F)F` [Example 8, N-ethyl-N-{2-[6-(1-hydroxy-1-methylethyl)pyridin-2-yl]ethyl}-2-(trifluoromethoxy)benzamide], the values for the IC50 in assay [1] and in assay [2] were more than 10 µM and 0.032 µM, respectively.

Turning to `CCN(CCc1ccc(C(C)(C)O)cn1)C(=O)c1ccccc1C1CC1(F)F` (stereo not drawn) [Example 63, 2-(2,2-difluorocyclopropyl)-N-ethyl-N-{2-[5-(1-hydroxy-1-methylethyl)pyridin-2-yl]ethyl}benzamide], the IC50 in assay [1] is more than 10 µM; in assay [2], 0.038 µM.

Consider `CCN(CCc1cccc(C(C)(C)O)n1)C(=O)c1ccccc1CC(F)F` [Example 23, 2-(2,2-difluoroethyl)-N-ethyl-N-(2-(6-(2-hydroxypropan-2-yl)pyridin-2-yl)ethyl)benzamide], for which the figures for the IC50 in assay [1] and in assay [2] were more than 10 µM and 0.142 µM, respectively.

As for `CCN(CCc1cccc(C(C)(C)O)n1)C(=O)c1ccccc1-n1ncnn1` [Example 29, N-ethyl-N-(2-(6-(2-hydroxypropan-2-yl)pyridin-2-yl)ethyl)-2-(2H-tetrazol-2-yl)benzamide], the half-inhibitory concentration (IC50) in assay [1] is more than 10 µM; in assay [2] it was 0.146 µM.

In the case of `CCN(CCc1cc(C)c(C(C)(C)O)cn1)C(=O)c1ccccc1-n1nccn1` [Example 47, N-Ethyl-N-(2-(5-(2-hydroxypropan-2-yl)-4-methylpyridin-2-yl)ethyl)-2-(2H-1,2,3-triazol-2-yl)benzamide], the IC50 amounted to 1.56 µM in assay [1] and 0.016 µM in assay [2].

Turning to `CCN(CCc1cccc(C(C)(C)O)n1)C(=O)c1ccccc1OC(F)F` [Example 7, 2-(difluoromethoxy)-N-ethyl-N-{2-[6-(1-hydroxy-1-methylethyl)pyridin-2-yl]ethyl}benzamide], the IC50 in assay [1] is more than 10 µM; in assay [2], 0.196 µM.
